Assay results reported in patent publication US20190209572A1, “BIFUNCTIONAL ANTIFUNGAL AGENTS AND METHODS OF TREATING FUNGAL INFECTION” (YALE UNIVERSITY, priority 2016, published 2019).

Legend:
[1] = tested on: caspofungin-treated C. albicans cells; test: Flow cytometry antibody-recruiting assay on C. albicans grown with caspofungin; format: cell-based, Candida albicans
Procedure: The synergistic experiments with Caspofungin were performed as described above, Save that yeast cell cultures were grown in Sabouraud dextrose broth supplemented with a fixed concentration of Caspofungin acetate from DMSO stock solutions.
Cultures of C. albicans Ca2323 were grown in Sabourad dextrose broth (Hardy Diagnostics, CA) to maintain them in a non-sporulating yeast form (blastopore form). S. cerevisiae YPH499 (Mat type a) were grown in YPD brath (Teknova, CA). Chitin-deficient strain S. cerevisiae YMS348s Δchs 1,2,3 was grown in YPD broth supplemented with 1M sorbitol. The fungal cultures were generally grown overnight at 30° C. for the antibody recruitment and phagocytosis assays. For consistency, O.D. measurements were taken using a single cuvette UltraSpec 10 cell density meter and experiments were performed on cultures with similar density. For experiments involving caspofungin treated C. albicans, the cells were grown overnight in media containing 1.25 ng/ml caspofungin acetate (Merck, PA). For experiments involving α factor induced arrest, α factor pheromone trifluoroacetate salt (Bachem, Switzerland) was added to a fresh S. cerevisiae YPH499 culture to a final concentration of 5 μg/mL followed by incubation for 1 h. Then, the cells were treated repeatedly with α factor pheromone trifluoroacetate salt (5 μg/mL) and incubated for an additional 2 h.
Fungal cells for the antibody recruitment experiments were always grown to 1.0 O.D. for consistency across experiments. The fungal cells were pelleted, washed, counted on the flow cytometer and re-constituted in FACS buffer of PBS containing 5% BSA at a density of 1×10^5 cells/mL. One microliter of suitably diluted ARM compound followed by 1 μL of 1:100 diluted anti-DNP biotinylated mouse monoclonal antibody (2 mg/mL, Invitrogen, CA) was added to 100 μL of fungal cells in FACS buffer. The reaction was mixed well and incubated in a 37° C. incubator for 30 minutes. Post incubation, washing was performed by adding 1 mL of FACS buffer to the reaction and the cells pelleted by centrifugation at 10000x g for 5 minutes. The pelleted cells were then reconstituted in 100 μl of FACS buffer followed by addition of 1 μL of 1:1000 diluted AF647 labeled streptavidin (0.5 mg/mL, BioLegend, CA) and 1 μL of 100 μg/ml propidium iodide (PromoKine, Germany). […] All experiments consisted of two sets of controls: (i) flow controls: unstained cells, propidium iodide stained cells, secondary reagent stained cells; (ii) background controls: compound 9 lacking DNP motifs, and no ARM-F. The cells were analyzed by flow cytometry on an Attune Nxt flow cytometer (Thermo Fischer Scientific) and the raw data further analyzed using FlowJo software (FlowJo LLC, OR).

[2] = ELISA assay for antibody recruitment on immobilized chitin; format: binding; settings: FIG. 9A
Procedure: Free chitin (0.100 g, Alfa Aesar, United Kingdom) was hydrolyzed by adding 10 ml of conc. HCl for 30 min with gentle stirring. An aliquot of the chilin solution(1 mL) was mixed with 9 ml of PBS to the final concentration of 1 mg/mL. This solution was further diluted to 100 μg/mL with PBS and coated overnight at 4° C. in a 96-well Nunc MaxiSorp microtiter plate. Upon completion, the coated plate was blocked with 2% BSA solution at 37° C. for 3 h. Next, compounds and controls at predetermined dilutions made in the 2% BSA blocking solution were added followed by addition of 2 mg/ml anti-DNP biotinylated antibodies diluted 1:100 (Invitrogen, CA). The plate was covered and incubated at 37° C. for 1 h. The plate was washed 3 times with wash solution (0.2% Tween 20 in PBS) and HRP-labeled streptavidin secondary reagent was added at a dilution 1:10000 in 2% BSA. The plate was incubated again at 37° C. for 1 h followed by washing 3 times with wash solution. HRP substrate TMB Ultra solution (Thermo Fischer, IL) was added to the plates and incubated until suitable color development and the reaction was stopped by adding 100 μL of aq. 1N H2SO4. Quantification was performed by measuring absorbance on a plate reader at 450 nm.

Candida albicans = test: Flow cytometry antibody-recruiting assay (anti-DNP antibodies) on C. albicans; format: cell-based
Procedure: Candida albicans cultures were maintained on Sabouraud dextrose agar (SDA) and yeast cell cultures were grown at 30° C. in Sabouraud dextrose broth with shaking at 225 rpm overnight (OD 1.1-1.3). For the assays, 10^5 cells were taken into 50 μL assay medium (5% BSA in PBS 1x) and treated with a fixed concentration of the indicated ARM-F compound from 100x DMSO stocks followed by imminent addition of 50 μL 500x stock solution of anti-DNP-biotine-xx conjugate antibodies in assay medium. Cells were allowed to incubate for 30 min at r.t., then washed twice with 500 μL assay medium followed by addition of 50 μL 500x stock solution of streptavidin-AlexaFluor 647 conjugate and propidium iodide. […] The cells were allowed to incubate for another 30 min, washed with 500 μL assay medium and antibody recruiting to the cell surface was evaluated via flow cytometry by measuring increasing cell counts in the FL-4 channel negative for FL-3.
A flow-cytometry based assay was developed to assess the antibody recruitment ability of candidate ARM-Fs to isolates of C. albicans. We chose this organism for our studies because it is both a known human pathogen, and readily tractable for experimental manipulations.^[13] Ternary complexes formed from ARM-F, fungal cells and anti-DNP antibodies were detected using an anti-DNP secondary antibody conjugated to Alexa Fluor 647 fluorophore. […]

C. albicans = test: Dual color flow cytometry-based fungal opsono-phagocytosis assay; format: cell-based, Candida albicans
From the text: In the physiological state, neutrophils mediate immune clearance of antibody-opsonized fungal cells.^[18], [19] To mimic this mechanism, we developed a functional assay to analyse ARM-F mediated opsonophagocytosis of fungal cells. The assay is based on two color flow cytometry and operates on the principle of differentiating phagocytosed fungal cells (intracellular) from non-phagocytosed cells (extracellular).^[20] […]
The pro-myeloblast cell line HL-60 was obtained from AtCC and cultured in high serum DMEM-F12 growth medium containing 15% FBS, 1 mM sodium pyruvate, 2 mM L-glutamine, 1X non-essential amino acids with antibiotics penicillin (10 U/mL) and streptomycin (10 μg/mL). […] The cells were counted every 24-48 hours on a Roche Innovatis Cedex XS automated cell counter and generally maintained at a density of 1×10^5 cells/mL. […]
Fungal cells for these experiments were always grown to 1.0 OD and the HL-60 cells to approximately 1×10^5 cells/mL for consistency between experiments. The fungal cells were counted by flow cytometry, pelleted and reconstituted in a fixing solution of ice-cold 70% ethanol and incubated for 1 h. […] After the final wash, the fungal cells were counted again on the flow cytometer and re-constituted in FACS buffer of PBS containing 5% BSA at a density of 2×10^6 cells/mL. […]

SMILES	viability of C. albicans at caspofungin concentrations higher than 1.25 ng/ml ([1]; FIG. 9C)	binding to chitin (in words) [2]	viability of fungal cells during antibody recruitment (Candida albicans; dose-dependent recruitment, FIG. 8B)	C. albicans cells exhibiting AF647 fluorescence (Candida albicans; no caspofungin, FIG. 8A)	fungal cells that recruited antibodies and were alive ([1]; 1 μM of 8, 1.25 ng/ml caspofungin, FIG. 9C) [%]	dose eliciting antibody recruitment comparable to the maximum possible in the non-caspofungin model ([1]; caspofungin treated C. albicans, FIG. 9D) [nM]	concentration eliciting maximum response in caspofungin treated cells ([1]; dose ranging, caspofungin treated C. albicans, FIG. 9D) [µM]	concentration of maximal phagocytosis response (C. albicans; bell-shaped curve, FIG. 10C) [µM]	phagocytosis of C. albicans cells (in words) (C. albicans; human neutrophils, anti-DNP antibodies, compared to untreated cells)
CC[C@H](C)C[C@H](C)CCCCCCCCC(=O)N[C@H]1C[C@@H](O)[C@@H](NCCN)NC(=O)[C@@H]2[C@@H](O)CCN2C(=O)[C@H]([C@H](O)CCN)NC(=O)[C@H]([C@H](O)[C@@H](O)c2ccc(O)cc2)NC(=O)[C@@H]2C[C@@H](O)CN2C(=O)[C@H]([C@@H](C)O)NC1=O [Caspofungin, reference compound]	reduced viability								
O=C(NCCOCCOCCOCCOCCOCCOCCOCCOCCOCCNc1ccc([N+](=O)[O-])cc1[N+](=O)[O-])c1ccc(Nc2nc(Nc3ccc(/C=C/c4ccc(Nc5nc(Nc6ccc(C(=O)NCCOCCOCCOCCOCCOCCOCCOCCOCCOCCNc7ccc([N+](=O)[O-])cc7[N+](=O)[O-])cc6)nc(N(CCO)CCO)n5)cc4S(=O)(=O)O)c(S(=O)(=O)O)c3)nc(N(CCO)CCO)n2)cc1 [compound 8]		binds to fungal chitin in a dose-dependent manner	no loss of viability	35-45%	90	10	1	10	drastic increase in number of phagocytosed fungal cells
